Test results from patent publication US20200377483A1, “NEW ANTI-MALARIAL AGENT” (MMV MEDICINES FOR MALARIA VENTURE, priority 2016, published 2020).
pIC50: −log10 of the molar value. Converted amounts (≈) assume the structure as drawn. “And” between values parts separate entries of the source, which are not always exact repeats. Equal values may be shown once. Read-outs that look alike come from different tables or passages of the source. Marks after values point to notes of the source that are not given here.

Assays:
[1] = Solubility in biorelevant media; type: physicochemical
Protocol: Compounds were each accurately weighed into individual screw cap polypropylene tubes and media added to give a nominal minimum target compound concentration of 2.2 mg/mL. Samples were vortex mixed and placed in a 37° C. incubator where they were continually mixed on an orbital shaker (IKA® VXR basic Vibrax® orbital shaker) at 600 rpm. Incubation times were 1 hour for fasted state simulated gastric fluid (FaSSGF) and 5 hours for fasted and fed state simulated intestinal fluids (FaSSIF-V2 and FeSSIF-V2 respectively). Sampling was carried out by centrifuging each sample at 10,000 rpm for 3 minutes, transferring 300 μL, aliquots into fresh Eppendorf tubes and centrifuging these tubes again at 10,000 rpm for 3 minutes. Triplicate aliquots of each final supernatant were diluted 20-fold in 50% aqueous methanol, and then further diluted in 50% aqueous acetonitrile to be within an appropriate concentration range for analysis by LC-MS. LC-MS methods and validation data for the analysis of solubility samples are shown in Table 2 below and the media composition is shown in Table 3.

[2] = system: chloroquine-resistant (K1) strain of P. falciparum; assay: In vitro antimalarial activity, K1 strain; type: cell-based
Protocol: (§1) The ability of dispiro 1,2,4-trioxolane derivatives according to the invention to show antimalarial efficacy in vitro and in vivo was tested as described in Charman, et al, 2011, PNAS, 108, 4400-4405 against chloroquine-resistant (K1) and chloroquine-sensitive (NF54) strains of P. falciparum in vitro (Vennerstrom et al. 2004, Nature, 430, 900-904).
(§2) The in vivo activity is shown in P. berghei (Pb) infected mice in terms of the percentage of inhibition of parasitemia following compound administration and the number of survival days.

[3] = system: chloroquine-sensitive (NF54) strain of P. falciparum; assay: In vitro antimalarial activity, NF54 strain; type: cell-based
Protocol: as §1, §2

[4] = system: P. berghei; assay: In vivo activity in P. berghei (Pb) infected mice
Protocol: as §1, §2

[5] = system: artemisinin-resistant P. falciparum isolate from Cambodia; assay: Ring-stage survival assay (RSA0-3h); type: cell-based; settings: for RSA values ± SEM (survival): 6 h exposure, 66 h post-treatment
Protocol: Agents Chemother. 57:914-923), but with a few modifications in the drug washing procedure to ensure that no residual peroxide was present during the 66 h post-treatment period. Briefly, 0-3 h post-invasion ring stages were adjusted to 1% parasitemia and 2.5% haematocrit by adding uninfected erythrocytes, transferred in a total volume of 1 mL into 48-well plates and exposed for 6 h to a range of concentrations ([…]) of DHA or one of the compounds tested in this study. After 6 h, cultures were transferred to 15 mL conical tubes, centrifuged at 1400 rpm (400 g) for 2 min and carefully washed 2 times with 12 mL of culture medium. […] After washing, blood pellets were resuspended in complete compound-free culture medium, transferred into new wells and cultured for 66 h in standard conditions. Table 8 below presents the Ring-stage survival assay (RSA) values as tested in Wells et al., 2015, supra for compounds of the invention and comparative compounds.

[6] = Solubility in biorelevant media; type: physicochemical; settings: PBS, pH 7.4
[7] = CLint, H; type: in vitro ADME, human; settings: H (first of H, D, R, M)
[8] = CLint, D; type: in vitro ADME, dog; settings: D (second of H, D, R, M)
[9] = CLint, R; type: in vitro ADME, rat; settings: R (third of H, D, R, M)
[10] = CLint, M; type: in vitro ADME, mouse; settings: M (fourth of H, D, R, M)
[11] = system: 7 CYP isoforms (1A2, 2B6, 2C8, 2C9, 2C19, 2D6, 3A4/5); assay: Cyp inhibition IC50, 7 isoforms, human liver microsomes; type: in vitro ADME
Protocol: The assessment of time-dependent inhibition was based on measurement of the “IC50 shift”, whereby the IC50 was measured following pre-incubation of test compound (or reference inhibitor) in the absence or presence of NADPH. A 10-fold dilution step was incorporated following the pre-incubation to minimize reversible product inhibition (by potential metabolites of test compound) such that evidence of time-dependent inhibition is more likely to reflect mechanism-based inhibition. The maximum concentration of test compound in the pre-incubation mixture (containing either 1 or 2 mg/mL microsomal protein and 1.0% v/v DMSO) was 200 μM, and the potential for precipitation of test compound was closely monitored at the time of spiking. […] On this basis, it is assumed that test compounds were fully dissolved at all concentrations in the pre-incubation mixtures. Reference inhibitors (both mechanism-based and reversible inhibitors) were included to validate the assay. […]

[12] = system: CYP isoforms (1A2, 2B6, 2C8, 2C9, 2C19, 2D6, 3A4/5); assay: Time-dependent CYP inhibition (IC50 shift), CYP isoforms; type: in vitro ADME; settings: human liver microsomes, 30 min pre-incubation with or without NADPH
Protocol: Time-dependent CYP inhibition can occur as a result of irreversible interactions of a test compound with a CYP450 enzyme (i.e. mechanism-based inhibition; MBI) or, alternatively, by reversible product inhibition (i.e. whereby the metabolite of the test compound is responsible for inhibition of the CYP). The potential for time-dependent CYP inhibition was assessed using CYP-specific metabolic pathways in human liver microsomes by measuring the formation of metabolites known to be formed by individual CYP isoforms (Table 5) according to the following protocol (probe substrates, metabolites and incubation times):
The assessment of time-dependent inhibition was based on measurement of the “IC50 shift”, whereby the IC50 was measured following pre-incubation of test compound (or reference inhibitor) in the absence or presence of NADPH. A 10-fold dilution step was incorporated following the pre-incubation to minimize reversible product inhibition (by potential metabolites of test compound) such that evidence of time-dependent inhibition is more likely to reflect mechanism-based inhibition. The maximum concentration of test compound in the pre-incubation mixture (containing either 1 or 2 mg/mL microsomal protein and 1.0% v/v DMSO) was 200 μM, and the potential for precipitation of test compound was closely monitored at the time of spiking. […]

CC1(C)CC(O)(COc2ccc([C@H]3CC[C@]4(CC3)OOC3(O4)C4CC5CC(C4)CC3C5)cc2)CC(C)(C)N1 (stereo partly drawn) [Compound (1), cis-Adamantane-2-spiro-3′-8′-[4′-[(4′-hydroxy-2′,2′,6′,6′-tetramethyl-4′-piperidinyl)methoxy]phenyl]-1′,2′,4′-trioxaspiro[4.5]decane]
Conc. (solubility) ([1]; FaSSGF, 37° C., 1 hour): 10.1 µg/mL | Conc. (solubility) ([1]; FaSSIF-V2, 37° C., 5 hours): 1516 µg/mL | Conc. (solubility) ([1]; FeSSIF-V2, 37° C., 5 hours): >2000 µg/mL | IC50 K1 [2]: 1.2 ng/mL (≈ 0.00228 µM) | IC50 NF54 [3]: 0.9 ng/mL (≈ 0.00171 µM) | % activity (percentage of inhibition of parasitemia) ([4]; Pb 1 × 10 mg/kg): 99.1% | Survival days ([4]; Pb 1 × 10 mg/kg): 13.6 days | % activity (percentage of inhibition of parasitemia) ([4]; Pb 1 × 30 mg/kg): 99.6% | Survival days ([4]; Pb 1 × 30 mg/kg): >30 days | RSA values ± SEM (survival) ([5]; 49 nM): 1.29 ± 1.24% | RSA values ± SEM (survival) ([5]; 88 nM): 0.16 ± 0.23% | RSA values ± SEM (survival) ([5]; 175 nM): 0.11 ± 0.08% | RSA values ± SEM (survival) ([5]; 350 nM): 0% | RSA values ± SEM (survival) ([5]; 700 nM): 0% | Conc. (solubility) [6]: 10.6 µg/mL

c1cc(C2CCC3(CC2)OOC2(O3)C3CC4CC(C3)CC2C4)ccc1OCCC1CCNCC1 (stereo not drawn) [Compound (2), cis-Adamantane-2-spiro-3′-8′-[4′-[2′-(4′-piperidinyl)ethoxy]phenyl]-1′,2′,4′-trioxaspiro [4.5]decane]
Conc. (solubility) ([1]; FaSSGF, 37° C., 1 hour): 5.6 µg/mL | Conc. (solubility) ([1]; FaSSIF-V2, 37° C., 5 hours): 293 µg/mL | Conc. (solubility) ([1]; FeSSIF-V2, 37° C., 5 hours): 1632 µg/mL | CLint H [7]: < 7 µL/min/mg | CLint D [8]: 9 µL/min/mg | CLint R [9]: < 7 µL/min/mg | CLint M [10]: 16 µL/min/mg | pIC50 [11]: < 4.70 | Time Dependent Inhibition [12]: none | IC50 K1 [2]: 1.4 ng/mL (≈ 0.00299 µM) | IC50 NF54 [3]: 1.4 ng/mL (≈ 0.00299 µM) | % activity (percentage of inhibition of parasitemia) ([4]; Pb 1 × 10 mg/kg): 99.4% | Survival days ([4]; Pb 1 × 10 mg/kg): 13.4 days | % activity (percentage of inhibition of parasitemia) ([4]; Pb 1 × 30 mg/kg): 99.5% | Survival days ([4]; Pb 1 × 30 mg/kg): >30 days | RSA values ± SEM (survival) ([5]; 49 nM): 0.76 ± 0.60% | RSA values ± SEM (survival) ([5]; 88 nM): 0% | RSA values ± SEM (survival) ([5]; 175 nM): 0% | RSA values ± SEM (survival) ([5]; 350 nM): 0% | RSA values ± SEM (survival) ([5]; 700 nM): 0% | growth of the artemisinin-resistant isolate ([5]; 700, 350, 175 and 88 nM): completely inhibiting the growth | Conc. (solubility) [6]: <1^c μg/mL

c1cc([C@H]2CC[C@]3(CC2)OO[C@]2(O3)C3CC4CC(C3)CC2C4)ccc1OCCN1CCOCC1 [Compound C1, reference compound]
Conc. (solubility) ([1]; FaSSGF, 37° C., 1 hour): 79.0 µg/mL | Conc. (solubility) ([1]; FaSSIF-V2, 37° C., 5 hours): 40.6 µg/mL | Conc. (solubility) ([1]; FeSSIF-V2, 37° C., 5 hours): 563 µg/mL | solubility at 1 h ([1]; fasted state simulated gastric fluid (FaSSGF), 37 °C, fassgf or other biorelevant, thermodynamic from solid, FaSSGF, 37° C., 1 hour, read-out: Conc. (solubility)): 51.9 µg/mL (≈ 111 µM) | solubility at 5 h ([1]; fasted state simulated intestinal fluid (FaSSIF-V2), 37 °C, fassif, thermodynamic from solid, FaSSIF-V2, 37° C., 5 hours, read-out: Conc. (solubility)): 22.3 µg/mL (≈ 47.5 µM) | solubility at 5 h ([1]; fed state simulated intestinal fluid (FeSSIF-V2), 37 °C, fessif, thermodynamic from solid, FeSSIF-V2, 37° C., 5 hours, read-out: Conc. (solubility)): 557 µg/mL (≈ 1190 µM) | IC50 ([3]; Plasmodium falciparum): 2 ng/mL (≈ 0.00426 µM) | % activity (percentage of inhibition of parasitemia) ([4]; Pb 1 × 10 mg/kg): 99.5% | Survival days ([4]; Pb 1 × 10 mg/kg): 15.2 days | % activity (percentage of inhibition of parasitemia) ([4]; Pb 1 × 30 mg/kg): 98.1% | Survival days ([4]; Pb 1 × 30 mg/kg): >30 days | RSA values ± SEM (survival) ([5]; 88 nM): 0.93 ± 0.93% | RSA values ± SEM (survival) ([5]; 175 nM): 0.73 ± 1.03% | RSA values ± SEM (survival) ([5]; 350 nM): 0.73 ± 1.03% | RSA values ± SEM (survival) ([5]; 700 nM): 0.73 ± 1.03%

C[C@H]1[C@@H](O)O[C@@H]2O[C@@]3(C)CC[C@H]4[C@H](C)CC[C@@H]1[C@@]24OO3 [DHA, Dihydroartemisinin, reference compound]
RSA values ± SEM (survival) ([5]; 49 nM): 74% and 73.5 ± 12.3% | RSA values ± SEM (survival) ([5]; 88 nM): 60.03 ± 4.99% | RSA values ± SEM (survival) ([5]; 175 nM): 47.94 ± 3.88% | RSA values ± SEM (survival) ([5]; 350 nM): 37.67 ± 3.65% | RSA values ± SEM (survival) ([5]; 700 nM): 33% and 33.02 ± 4.39%
